Biological target: AMPK
Test: AMPK activation, enzyme-linked immunosorbent assay
Assay type: biochemical
Settings: Table 13, compounds of Table 6
Method in brief: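 AMPK activation by test compounds was measured by enzyme-linked immunosorbent assay.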

| Structure (SMILES) | EC50 [µM] |
| --- | --- |
| N#Cc1ccc(CN2CCC(NC(=O)c3cc4cc(NC(=O)c5cnn(-c6ccc(F)cc6)c5)ccc4o3)CC2)cc1 [Compound 6-66, N-(2-(1-(4-cyanobenzyl)piperidin-4-ylcarbamoyl)benzofuran-5-yl)-1-(4-fluorophenyl)-1H-pyrazole-4-carboxamide] | 0.1 to 1 |
| N#Cc1ccc(CN2CCC(NC(=O)c3cc4cc(NC(=O)c5ccc(N6CCCC6)cc5)ccc4o3)CC2)cc1 [Compound 6-68, N-(1-(4-cyanobenzyl)piperidin-4-yl)-5-(4-(pyrrolidin-1-yl)benzamido)benzofuran-2-carboxamide] | 0.1 to 1 |
| N#Cc1ccc(CN2CCC(NC(=O)c3cc4cc(NC(=O)[C@H]5CC[C@@H](Oc6ccc(C#N)cc6)CC5)ccc4o3)CC2)cc1 [Compound 6-69, N-(1-(4-cyanobenzyl)piperidin-4-yl)-5-((1s,4s)-4-(4-cyanophenoxy)cyclohexanecarboxamido) benzofuran-2-carboxamide] | < 0.1 |
| N#Cc1ccc(CN2CCC(NC(=O)c3cc4cc(NC(=O)c5ccc(Oc6ccc(C#N)cn6)cc5)ccc4o3)CC2)cc1 [Compound 6-71, N-(1-(4-cyanobenzyl)piperidin-4-yl)-5-(4-(5-cyanopyridin-2-yloxy)benzamido)benzofuran-2-carboxamide] | 0.1 to 1 |
| N#Cc1ccc(CN2CCC(NC(=O)c3cc4cc(NC(=O)c5cnn(Cc6ccc(C(F)(F)F)cc6)c5)ccc4o3)CC2)cc1 [Compound 6-72, N-(2-(1-(4-cyanobenzyl)piperidin-4-ylcarbamoyl)benzofuran-5-yl)-1-(4-(trifluoromethyl)benzyl)-1H-pyrazole-4-carboxamide] | 1 to 10 |
| N#Cc1ccc(CN2CCC(NC(=O)c3cc4cc(NC(=O)C5CN(c6ccc(C#N)cc6)C5)ccc4o3)CC2)cc1 [Compound 6-74, N-(2-(1-(4-cyanobenzyl)piperidin-4-ylcarbamoyl)benzofuran-5-yl)-1-(4-cyanophenyl)azetidine-3-carboxamide] | 0.1 to 1 |
| N#Cc1ccc(CN2CCC(NC(=O)c3cc4cc(C(=O)N5CCN(Cc6cnn(-c7ccc(C#N)cc7)c6)CC5)ccc4o3)CC2)cc1 [Compound 6-77, N-(1-(4-cyanobenzyl)piperidin-4-yl)-5-(4-((1-(4-cyanophenyl)-1H-pyrazol-4-yl)methyl)piperazine-1-carbonyl)benzofuran-2-carboxamide] | < 0.1 |
| N#Cc1ccc(CN2CCC(NC(=O)c3cc4cc(C(=O)N5CCN(Cc6ccc(-n7cccn7)cc6)CC5)ccc4o3)CC2)cc1 [Compound 6-79, 5-(4-(4-(1H-pyrazol-1-yl)benzyl)piperazine-1-carbonyl)-N-(1-(4-cyanobenzyl)piperidin-4-yl)benzofuran-2-carboxamide] | < 0.1 |
| N#Cc1ccc(CN2CCC(NC(=O)c3cc4cc(C(=O)N5CCN(Cc6ccc(N7CCCC7)cc6)CC5)ccc4o3)CC2)cc1 [Compound 6-80, N-(1-(4-cyanobenzyl)piperidin-4-yl)-5-(4-(4-(pyrrolidin-1-yl)benzyl)piperazine-1-carbonyl)benzofuran-2-carboxamide] | < 0.1 |
| N#Cc1ccc(CN2CCC(NC(=O)c3cc4cc(C(=O)N5CCN(Cc6ccc(-c7ccccn7)cc6)CC5)ccc4o3)CC2)cc1 [Compound 6-82, N-(1-(4-cyanobenzyl)piperidin-4-yl)-5-(4-(4-(pyridin-2-yl)benzyl)piperazine-1-carbonyl)benzofuran-2-carboxamide] | < 0.1 |
| N#Cc1ccc(CN2CCC(NC(=O)c3cc4cc(NC(=O)C5CCN(c6ccc(C(F)(F)F)cc6)CC5)ccc4o3)CC2)cc1 [Compound 6-83, N-(2-(1-(4-cyanobenzyl)piperidin-4-ylcarbamoyl)benzofuran-5-yl)-1-(4-(trifluoromethyl)phenyl) piperidine-4-carboxamide] | 1 to 10 |
| CS(=O)(=O)c1ccc(C(=O)Nc2ccc3oc(C(=O)NC4CCN(Cc5ccc(C#N)cc5)CC4)cc3c2)cc1 [Compound 6-85, N-(1-(4-cyanobenzyl)piperidin-4-yl)-5-(4-(methylsulfonyl)benzamido) benzofuran-2-carboxamide] | 1 to 10 |
| N#Cc1ccc(CN2CCC(NC(=O)c3cc4cc(C(=O)N5CCN(c6ccc(F)cc6)CC5)ccc4o3)CC2)cc1 [Compound 6-86, N-(1-(4-cyanobenzyl)piperidin-4-yl)-5-(4-(4-fluorophenyl)piperazine-1-carbonyl)benzofuran-2-carboxamide] | < 0.1 |
| CS(=O)(=O)c1ccc(N2CCN(C(=O)c3ccc4oc(C(=O)NC5CCN(Cc6ccc(C#N)cc6)CC5)cc4c3)CC2)cc1 [Compound 6-87, N-(1-(4-cyanobenzyl)piperidin-4-yl)-5-(4-(4-(methylsulfonyl)phenyl)piperazine-1-carbonyl) benzofuran-2-carboxamide] | 0.1 to 1 |
| N#Cc1ccc(CN2CCC(NC(=O)c3cc4cc(C(=O)NC5CCN(Cc6ccn(-c7ccc(C#N)cc7)n6)CC5)ccc4o3)CC2)cc1 [Compound 6-91, N2-(1-(4-cyanobenzyl)piperidin-4-yl)-N5-(1-((1-(4-cyanophenyl)-1H-pyrazol-3-yl)methyl)piperidin-4-yl)benzofuran-2,5-dicarboxamide] | 1 to 10 |
| N#Cc1ccc(CN2CCC(NC(=O)c3cc4cc(C(=O)NC5CCN(Cc6ccc(OC(F)(F)F)cc6)CC5)ccc4o3)CC2)cc1 [Compound 6-93, N2-(1-(4-cyanobcnzyl)piperidin-4-yl)-N5-(1-(4-(trifluoromethoxy)benzyl)piperidin-4-yl)benzofuran-2,5-dicarboxamide] | 0.1 to 1 |
| COc1ccc(CN2CCC(NC(=O)c3cc4cc(C(=O)N5CCN(Cc6ccc(-n7cccn7)cc6)CC5)ccc4o3)CC2)cc1 [Compound 6-96, 5-(4-(4-(1H-pyrazol-1-yl)benzyl)piperazine-1-carbonyl)-N-(1-(4-methoxybenzyl)piperidin-4-yl)benzofuran-2-carboxamide] | < 0.1 |
| COc1cc(CN2CCC(NC(=O)c3cc4cc(C(=O)N5CCN(Cc6ccc(S(C)(=O)=O)cc6)CC5)ccc4o3)CC2)ccc1F [Compound 6-98, N-(1-(4-fluoro-3-methoxybenzyl)piperidin-4-yl)-5-(4-(4-(methylsulfonyl)benzyl)piperazine-1-carbonyl) benzofiiran-2-carboxamide] | 0.1 to 1 |
| COc1cccc(CN2CCC(NC(=O)c3cc4cc(C(=O)N5CCN(Cc6ccc(S(C)(=O)=O)cc6)CC5)ccc4o3)CC2)c1 [Compound 6-99, N-(1-(3-methoxybenzyl)piperidin-4-yl)-5-(4-(4-(methylsulfonyl)benzyl)piperazine-1-carbonyl) benzofuran-2-carboxamide] | 1 to 10 |

The remaining lines, values ahead:

| EC50 [µM] | Structure (SMILES) |
| --- | --- |
| 1 to 10 | N#Cc1ccc(CC(=O)Nc2ccc3oc(C(=O)NC4CCN(Cc5ccc(C#N)cc5)CC4)cc3c2)cc1 [Compound 6-67, N-(1-(4-cyanobenzyl)piperidin-4-yl)-5-(2-(4-cyanophenyl)acetamido) benzofuran-2-carboxamide] |
| < 0.1 | N#Cc1ccc(CN2CCC(NC(=O)c3cc4cc(NC(=O)C5CCN(c6ccc(C#N)cn6)CC5)ccc4o3)CC2)cc1 [Compound 6-70, N-(2-(1-(4-cyanobenzyl)piperidin-4-ylcarbamoyl)benzofuran-5-yl)-1-(5-cyanopyridin-2-yl)piperidine-4-carboxamide] |
| 1 to 10 | N#Cc1ccc(CN2CCC(NC(=O)c3cc4cc(NC(=O)c5cnn(Cc6ccc(C#N)cc6)c5)ccc4o3)CC2)cc1 [Compound 6-73, 1-(4-cyanobenzyl)-N-(2-(1-(4-cyanobenzyl)piperidin-4-ylcarbamoyl)benzofuran-5-yl)-1H-pyrazole-4-carboxamide] |
| < 0.1 | N#Cc1ccc(CN2CCC(NC(=O)c3cc4cc(NC(=O)C5CCN(c6ccc(C#N)cc6)CC5)ccc4o3)CC2)cc1 [Compound 6-76, N-(2-(1-(4-cyanobenzyl)piperidin-4-ylcarbamoyl)benzofuran-5-yl)-1-(4-cyanophenyl)piperidine-4-carboxamide] |
| < 0.1 | N#Cc1ccc(CN2CCC(NC(=O)c3cc4cc(C(=O)N5CCN(Cc6ccc(OC(F)(F)F)cc6)CC5)ccc4o3)CC2)cc1 [Compound 6-81, N-(1-(4-cyanobenzyl)piperidin-4-yl)-5-(4-(4-(trifluoromethoxy)benzyl)piperazine-1-carbonyl) benzofuran-2-carboxamide] |
| < 0.1 | CS(=O)(=O)c1ccc(N2CCC(C(=O)Nc3ccc4oc(C(=O)NC5CCN(Cc6ccc(C#N)cc6)CC5)cc4c3)CC2)cc1 [Compound 6-84, N-(2-(1-(4-cyanobenzyl)piperidin-4-ylcarbamoyl)benzofuran-5-yl)-1-(4-(methylsulfonyl)phenyl) piperidine-4-carboxamide] |
| < 0.1 | N#Cc1ccc(CN2CCC(NC(=O)c3cc4cc(C(=O)NC5CCN(c6ccc(C#N)cc6)CC5)ccc4o3)CC2)cc1 [Compound 6-90, N2-(1-(4-cyanobenzyl)piperidin-4-yl)-N5-(1-(4-cyanophenyl)piperidin-4-yl)benzofuran-2,5-dicarboxamide] |
| 0.1 to 1 | N#Cc1ccc(CN2CCC(NC(=O)c3cc4cc(C(=O)NC5CCN(Cc6ccc(-n7cccn7)cc6)CC5)ccc4o3)CC2)cc1 [Compound 6-92, N5-(1-(4-(lH-pyrazol-1-yl)benzyl)piperidin-4-yl)-N2-(1-(4-cyanobenzyl)piperidin-4-yl)benzofuran-2,5-dicarboxamide] |
| 0.1 to 1 | COc1ccc(CN2CCC(NC(=O)c3cc4cc(C(=O)N5CCN(Cc6ccc(S(C)(=O)=O)cc6)CC5)ccc4o3)CC2)cc1 [Compound 6-94, N-(1-(4-methoxybenzyl)piperidin-4-yl)-5-(4-(4-(methylsulfonyl)benzyl)piperazine-1-carbonyl) benzofuran-2-carboxamide] |
| 0.1 to 1 | CS(=O)(=O)c1ccc(CN2CCN(C(=O)c3ccc4oc(C(=O)NC5CCN(Cc6ccc(OC(F)(F)F)cc6)CC5)cc4c3)CC2)cc1 [Compound 6-95, 5-(4-(4-(methylsulfonyl)benzyl)piperazine-1-carbonyl)-N-(1-(4-(trifluoromethoxy)benzyl)piperidin-4-yl)benzofuran-2-carboxamide] |
| < 0.1 | O=C(NC1CCN(Cc2ccc(OC(F)(F)F)cc2)CC1)c1cc2cc(C(=O)N3CCN(Cc4ccc(-n5cccn5)cc4)CC3)ccc2o1 [Compound 6-97, 5-(4-(4-(1H-pyrazol-1-yl)benzyl)piperazine-1-carbonyl)-N-(1-(4-(trifluoromcthoxy)benzyl)piperidin-4-yl)benzofuran-2-carboxamide] |

From patent US9409884B2 (Rigel Pharmaceuticals, Inc., priority 2012, dated 2016)
